Measurements taken from US7838230B2 (priority 2004, dated 2010).

Assays:
[1] = target: T1, topoisomerase IV (Escherichia coli, UniProt P0AFI2+P20083); assay: Topoisomerase IV relaxation, microplate assay; assay type: biochemical
[2] = target: T1, topoisomerase IV; assay: Topoisomerase IV relaxation, gel electrophoresis assay; assay type: biochemical

T1 sequence (P20083 whole entry): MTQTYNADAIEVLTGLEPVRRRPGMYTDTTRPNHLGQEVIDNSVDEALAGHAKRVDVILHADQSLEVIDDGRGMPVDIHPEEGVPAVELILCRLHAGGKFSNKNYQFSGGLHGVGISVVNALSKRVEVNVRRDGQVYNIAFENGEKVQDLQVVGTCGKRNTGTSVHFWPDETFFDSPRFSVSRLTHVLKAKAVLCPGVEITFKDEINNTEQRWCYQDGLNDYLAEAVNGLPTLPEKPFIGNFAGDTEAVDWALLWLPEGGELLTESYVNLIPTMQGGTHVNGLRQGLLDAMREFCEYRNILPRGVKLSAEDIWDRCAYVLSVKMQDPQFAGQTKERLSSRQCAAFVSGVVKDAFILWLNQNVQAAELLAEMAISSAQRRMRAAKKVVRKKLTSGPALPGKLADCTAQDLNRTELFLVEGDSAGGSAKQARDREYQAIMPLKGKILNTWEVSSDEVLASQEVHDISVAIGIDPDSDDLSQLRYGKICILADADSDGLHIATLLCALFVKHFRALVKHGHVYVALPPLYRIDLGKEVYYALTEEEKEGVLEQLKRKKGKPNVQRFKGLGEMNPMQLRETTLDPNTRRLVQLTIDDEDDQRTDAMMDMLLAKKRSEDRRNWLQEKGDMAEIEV
T1 sequence (P0AFI2 whole entry): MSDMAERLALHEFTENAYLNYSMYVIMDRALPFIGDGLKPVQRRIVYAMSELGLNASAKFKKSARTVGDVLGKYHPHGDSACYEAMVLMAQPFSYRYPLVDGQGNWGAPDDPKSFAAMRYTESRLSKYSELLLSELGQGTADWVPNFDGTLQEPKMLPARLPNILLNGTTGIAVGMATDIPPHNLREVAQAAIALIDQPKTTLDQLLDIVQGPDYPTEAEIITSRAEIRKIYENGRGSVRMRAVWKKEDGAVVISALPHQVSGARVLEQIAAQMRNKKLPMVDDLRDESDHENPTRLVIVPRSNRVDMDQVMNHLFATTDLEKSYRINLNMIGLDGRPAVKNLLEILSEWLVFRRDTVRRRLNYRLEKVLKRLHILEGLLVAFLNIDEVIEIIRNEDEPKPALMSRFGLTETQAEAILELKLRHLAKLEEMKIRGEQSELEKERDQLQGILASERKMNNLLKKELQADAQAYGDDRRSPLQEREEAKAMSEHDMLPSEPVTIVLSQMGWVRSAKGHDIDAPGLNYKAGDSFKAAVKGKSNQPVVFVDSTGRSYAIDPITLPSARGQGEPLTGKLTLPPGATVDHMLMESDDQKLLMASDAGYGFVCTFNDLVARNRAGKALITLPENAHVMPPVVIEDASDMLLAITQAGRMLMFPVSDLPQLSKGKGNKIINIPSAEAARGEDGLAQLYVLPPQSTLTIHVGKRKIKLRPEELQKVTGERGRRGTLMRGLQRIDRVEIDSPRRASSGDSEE

| SMILES | IC50 ([1]; supercoiled pNO1 substrate, plate assay, read-out: Topo IV Relaxation IC50 Plate assay) [µM] | IC50 ([2]; supercoiled pNO1 substrate, gel assay, read-out: Topo IV Relaxation IC50 Gel assay) [µM] | IC50 [1] [µM] | IC50 [2] [µM] |
| --- | --- | --- | --- | --- |
| CO[C@@H]1[C@@H](OC(=O)c2ccc(C)[nH]2)[C@@H](O)[C@H](Oc2ccc3c(O)c(NC(=O)c4ccc(O)c(CC=C(C)C)c4)c(=O)oc3c2Cl)OC1(C)C [Chlorbiocin] | 0.32 | 0.14 |  |  |
| CCn1cc(C(=O)O)c(=O)c2ccc(C)nc21 [Naladixic acid] |  |  | 88.4 | 36.3 |
